# Experimental data: patent publication US20140011277A1, “NOVEL THERAPEUTIC STRATEGIES FOR IMPROVING AN ANTICANCER TREATMENT” (CENTRE NATIONAL DE LA RECHERCHE SCIENTIFIQUE (CNRS), priority 2010, published 2014)
# How the values were obtained:
# [1] = target: T1, human Patched protein (Homo sapiens, UniProt Q13635); assay: Measurement of the efflux of doxorubicin on xenopus oocytes; assay type: cell-based; parameters: expressed in transfected cells; host or cells: Xenopus laevis oocytes (RNA injection); details: oocytes injected with 10 or 20 ng RNA encoding human Patched protein vs non-injected; 100 μM doxorubicin 16 hrs, supernatant after 90 mins
# T1 sequence (Q13635 1-1447): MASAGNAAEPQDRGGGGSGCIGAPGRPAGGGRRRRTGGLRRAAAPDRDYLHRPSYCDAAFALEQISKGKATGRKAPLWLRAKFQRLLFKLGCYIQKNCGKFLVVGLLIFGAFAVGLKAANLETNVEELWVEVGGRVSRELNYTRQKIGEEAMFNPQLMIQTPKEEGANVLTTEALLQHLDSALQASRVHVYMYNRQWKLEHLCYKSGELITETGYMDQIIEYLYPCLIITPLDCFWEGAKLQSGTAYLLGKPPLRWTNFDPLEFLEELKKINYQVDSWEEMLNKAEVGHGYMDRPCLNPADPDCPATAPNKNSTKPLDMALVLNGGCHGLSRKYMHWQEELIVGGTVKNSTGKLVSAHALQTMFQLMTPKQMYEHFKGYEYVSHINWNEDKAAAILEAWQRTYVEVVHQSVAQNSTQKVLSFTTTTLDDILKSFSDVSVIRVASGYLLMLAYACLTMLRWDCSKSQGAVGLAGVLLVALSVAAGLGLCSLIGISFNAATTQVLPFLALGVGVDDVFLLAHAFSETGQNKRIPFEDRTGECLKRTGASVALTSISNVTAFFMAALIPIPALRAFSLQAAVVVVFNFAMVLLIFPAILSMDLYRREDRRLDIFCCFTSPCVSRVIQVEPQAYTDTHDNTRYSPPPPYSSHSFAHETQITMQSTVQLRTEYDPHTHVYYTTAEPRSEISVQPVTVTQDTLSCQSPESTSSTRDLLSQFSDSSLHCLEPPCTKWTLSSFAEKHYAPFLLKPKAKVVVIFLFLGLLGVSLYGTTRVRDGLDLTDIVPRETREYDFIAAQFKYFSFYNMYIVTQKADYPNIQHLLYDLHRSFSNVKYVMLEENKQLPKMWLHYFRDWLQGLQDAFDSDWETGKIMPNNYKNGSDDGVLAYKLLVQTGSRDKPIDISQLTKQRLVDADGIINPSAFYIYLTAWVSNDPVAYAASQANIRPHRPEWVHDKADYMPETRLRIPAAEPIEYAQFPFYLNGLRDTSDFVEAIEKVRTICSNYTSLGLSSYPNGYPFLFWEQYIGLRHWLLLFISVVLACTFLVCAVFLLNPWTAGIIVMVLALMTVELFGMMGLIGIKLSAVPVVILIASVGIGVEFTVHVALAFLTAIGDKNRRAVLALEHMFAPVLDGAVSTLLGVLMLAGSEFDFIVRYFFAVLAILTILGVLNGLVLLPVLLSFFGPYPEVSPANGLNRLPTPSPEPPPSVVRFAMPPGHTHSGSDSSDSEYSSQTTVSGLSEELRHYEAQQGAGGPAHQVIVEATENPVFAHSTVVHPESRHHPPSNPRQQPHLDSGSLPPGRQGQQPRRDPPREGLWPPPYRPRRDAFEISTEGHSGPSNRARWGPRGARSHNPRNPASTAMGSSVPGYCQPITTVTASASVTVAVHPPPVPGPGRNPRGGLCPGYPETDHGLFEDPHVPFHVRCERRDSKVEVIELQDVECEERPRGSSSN
# Procedure: The oocytes are collected by surgery on an Xenopus laevis female anaesthetized with 0.2% of MS222 (tricaine methanesulfonate) in accordance with the procedures recommended by the ethics committee. The oocytes are washed with an MBS saline solution, pH 7.4 (NaCl 85 mM, KCl 1 mM, NaHCO32,4 mM, MgSO40.82 mM, Ca(NO3)20.33 mM, CaCl2 0.41 mM, HEPES 10 mM, NaOH 4.5 mM) supplemented with 50 U/ml of penicillin and 50 μg/ml of streptomycin. The oocytes are then defolliculated by incubation for 16 hrs at 19° C. with 1.8 mg/ml of collagenase then 30 mins with MBS without calcium, and placed in MBS. 50 nL containing 10 or 20 ng of RNA encoding human Patched protein are injected per oocyte. The oocytes are incubated for 3 days at 19° C. in MBS. 4 lots of 10 control oocytes (not injected) and oocytes injected with RNA encoding human Patched protein were incubated for 16 hrs at 19° C. with 100 μM of doxorubicin. After rinsing, the oocytes are placed in MBS. The supernatant is sampled after 90 mins and the doxorubicin fluorescence present in the sample is measured by fluorescence (λex=490+/−10 nm, λem=610+/−10 nm).
# The experiments being carried out on 4 lots of 10 control oocytes (non-injected) and oocytes injected with RNAs encoding human Patched protein, the average of the values obtained for the 4 lots is shown.
# [2] = target: T1, human Patched protein; assay: Measurement of the efflux of doxorubicin on yeasts; assay type: cell-based; parameters: expressed in transfected cells; host or cells: Xenopus laevis oocytes (RNA injection); details: yeasts loaded 2 hours with 10 μM doxorubicin, supernatant after 20 mins; Patched-expressing vs K699 control
# Procedure: After a centrifugation (5 mins at 6800 g) to remove all cell fragments, the reading of the doxorubicin fluorescence (λex=490+/−10 nm, λem=610+/−10 nm) was carried out on 200 μL of supernatant in a plate reader (FLUOstar, Labtech). • on yeasts: K699 control yeasts and yeasts expressing human Patched protein were cultured at 18° C. up to an OD600 of 7 on a rich medium with 2% of added D-glucose.
# The cells are then centrifuged, (5 mins. 3000 g), washed 4 times with water and finally resuspended carefully to an OD600 of 10 in 50 mM NaOH-Hepes buffer (pH 7.0) and incubated for 2 hours with 10 μM of doxorubicin.
# After rinsing, the yeasts are resuspended in 50 mM NaOH-Hepes buffer (pH 7.0).
# After 20 mins, the yeasts are centrifuged and doxorubicin contained in the supernatant is measured by fluorescence (λex=490+/−10 nm, λem=610+/−10 nm). • On xenopus oocytes: obtaining and preparing the oocytes
# [3] = test system: yeasts expressing human Patched protein; assay: Resistance of yeasts to doxorubicin (growth, OD at 600 nm over time); assay type: cell-based, S. cerevisiae; details: 10 μg/mL doxorubicin in rich medium, 18° C.; yeasts expressing human Patched protein vs K699 control yeasts
# Procedure: Yeasts not expressing human Patched protein (controls) K699 and yeasts expressing human Patched protein were cultured at 18° C. in normal rich medium and in rich medium with 10 μg of added doxorubicin per mL of medium.
# The OD of the yeasts at 600 nm is measured over time.
# [4] = target: T1, human Patched protein; assay: Binding of doxorubicin to Patched protein (quenching of doxorubicin fluorescence on yeast membrane preparations); details: 50 nM doxorubicin added to 30 μg of membranes; Patched-containing vs K699 control membranes
# Procedure: 50 nM of doxorubicin are added to 30 μg of membranes and the doxorubicin fluorescence is measured as a function of time.
smiles,measurement,setting,value
COc1cccc2c1C(=O)c1c(O)c3c(c(O)c1C2=O)C[C@@](O)(C(=O)CO)C[C@@H]3O[C@H]1C[C@H](N)[C@H](O)[C@H](C)O1 [doxorubicin],efflux of doxorubicin (fluorescence of supernatant),[1],increase in the efflux of doxorubicin
same,efflux of doxorubicin (fluorescence of supernatant),[2],increase in the efflux of doxorubicin
same,resistance of yeasts to doxorubicin,[3],yeasts expressing human Patched protein resist better than the control yeasts
same,quenching of doxorubicin fluorescence (binding to Patched protein),[4],rapid and significant quenching of the doxorubicin fluorescence
